Data: US4223041A, “Urea derivatives to treat anxiety and aggressivity” (Labaz, priority 1976, dated 1980)
Like-named read-outs stand apart in the source and are kept apart here.

Assays:
[1] = Anxiolytic and antiaggressive properties and separation from sedation (general statements); settings: in vivo
[2] = rota rod test (neurotoxicity); format: in vivo, mouse; settings: 370 mg/kg oral, mice, 30 min after administration
Experimental: The test used was that known as the rota rod test described by BOISSIER (Therapie 1958 XIII pp. 1074-1118).
This test aims at determining the ability of mice to coordinate their movements by seeing to what extent they can remain on a roller turning at a rate of 4 revolutions per minute for two minutes. The trial was carried out thirty minutes after administration by oral route of the compound to be studied and the percentage of failures was noted.
The value of this test is twofold. Failure on the part of the animals gives a very early indication of the slightest damage to the meuromuscular functions which cannot be discerned by any other means. Secondly, this test serves as an element of comparison for drawing up index figures involving the results obtained with other tests.

[3] = "Electrically-provoked combat" test (anxiolytic action); format: in vivo, mouse; settings: Mus musculus, 0.5 h; 71 mg/kg, mice, 30 min before test; read-out: % of decrease in number of combats
Text: Under certain conditions, a pair of mice reacts to an electric stimulus by a series of combats which are provoked by the anxiety felt by the animals as a result of the electric shock. This anxiety is expressed by a combat with the other animal which is rendered responsible. For this reason, the test described hereunder can be considered as a means of evaluating the anxiolytic action of a compound. Two mice which have been previously on a diet consisting only of water are placed together in a cage. They are then submitted to a series of electric impulses of an intensity varying between 40 and 80 volts according to the sensitivity of the animals. The test is first carried out with untreated animals as controls and then with the same animals treated 30 minutes before the test with a dose of the compound to be studied.
Note is taken on the number of combats engaged. The results are expressed in percentage of decrease in the number of combats engaged by the treated animals in comparison with the number of combats registered before treatment.

[4] = Four plates test (anxiolytic action); format: in vivo, mouse; settings: 0.5 h; 105 mg/kg oral, mouse, 30 min after administration; read-out: % of protection against anxiety
Text: This test, which is specific to the anxiolytics, was undertaken with the mouse, thirty minutes after the oral administration of the compound to be studied.
It consists in placing mice in a box with fairly high walls, of which the bottom comprises four square plates. These plates, which all have the same dimensions, are separated from each other by a central axis and are alternately electrified by the positive and negative poles of a source of electric current. There is a space of a few millimeters between adjacent plates.
The mouse placed in this apparatus explores it and thus passes over the different plates in succession. Note is taken of the number of times each animal passes over the plates during one minute. When the current is switched on, the mouse passing over the plates receives an electric shock (80 V), which provokes a gradual decrease in the exploratory movements, and finally brings the animals to a complete stop.
Anxiolytic agents enable the animals to become more or less indifferent to the electric shock.
The percentage of protection against anxiety given by compounds of the invention was calculated by comparing the number of times the control animals passed over the plates when electrified with the number of times the treated animals passed over the electrified plates.

[5] = Action on the pentylenetetrazole-induced seizure (anticonvulsant activity); format: in vivo, mouse
Experimental: The purpose of this test which is carried out on mice is to determine whether the compounds of the invention, when given preventively by oral route, are capable at certain doses of protecting some of the animals against the epileptic seizure produced by a predetermined dose of pentylenetetrazole which would be 100% fatal in the absence of the compound.
The compound to be studied was administered fifteen minutes before an injection of 125 mg/kg of pentylenetetrazole and note was taken of the number of deaths occurring during the three hours following this injection. The results were expressed in percentage of protection of the animals against death at the dose studied.

[6] = Action with respect to tremorine (cholinolytic properties); format: in vivo, mouse; settings: 170 mg/kg oral, mice, 30 min before 100 mg/kg i.p. tremorine
Experimental: This test has been described by EVERETT (Nature, 1956, 177-238)
When injected into mice, tremorine produces peripheral cholinergic effects i.e. weeping, hypersalivation, sedation, diarrhea as well as central cholinergic effects i.e. tremors, akinesia.
Batches of 10 mice separated into individual cages, were given the compound to be studied, by oral route, 30 minutes before administration of an intraperitoneal dose of 100 mg/kg of tremorine.
Note was then taken in each batch of the percentage of animals presenting the various symptoms of tremorine-induced poisoning since at such a dose of tremorine 100% of the control animals are poisoned.
The results hereunder are expressed in percentage of mice protected against tremor at the dose of the compound of the invention which was administered: […]

[7] = cited from earlier work
[8] = Arch. Int. Pharmacodyn 219, 104-115 (1976)

## CCCC(CCC)(CCC)NC(=O)NC(C)=O [1-(1,1-di-n-propyl-n-butyl)-3-acetyl-urea]
[1]
  anxiolytic and antiaggressive activity (in words): inactive or practically devoid of any anxiolytic or antiaggressive activity

## CCCC(CCC)(CCC)NC(=O)NC(=O)c1ccccc1 [1-(1,1-di-n-propyl-n-butyl)-3-benzoyl-urea]
[1]
  anxiolytic and antiaggressive activity (in words): inactive or practically devoid of any anxiolytic or antiaggressive activity

## C#CC(CC)(CC)NC(N)=O [Compound C, 1-(1,1-Diethyl-2-propynyl)-urea]
[2]
  % of failures in rota rod test: 50%
[3]
  inhibition in vivo at 71 mg/kg: 50%
[4]
  inhibition in vivo at 105 mg/kg: 50%
[5]; Mus musculus, po, 3 h, read-out: % of protection against death
  responders at 70 mg/kg: 50%
[5]; pentylenetetrazole-induced seizure, mice, oral
  anticonvulsant activity (in words): considerable
[6]
  % of protection against tremor: 0%

## CCCCNC(N)=O [n-butyl-urea]
[7]; Arch. Int. Pharmacodyn 208, 204-212 (1974)
  pharmacological properties (in words): properties similar to those cited hereabove with respect to tert-butyl-urea

## CC(C)(C)NC(N)=O [tert-butyl-urea]
[7]; [8]
  pharmacological properties (in words): anticonvulsant, hypnotic and sedative properties
  potentiation of hypnotic effects of the barbiturates: potentiator of the hypnotic effects of the barbiturates
